Results as given in the supplement of paper PMC5908809.

Columns and labels:
[1] = tested on: normal primary NK cells, pool 1 (3 donors) (IL-2 2.5 ng/mL); assay: percent inhibition of viability; higher = more inhibition; conditions: 72 h
DERL-7 (IL-2 2.5 ng/mL) [2] = assay: as above; conditions: 72 h
KHYG-1 (IL-2 2.5 ng/mL) [3] = assay: as above; conditions: 72 h
[4] = tested on: normal primary NK cells, pool 2 (3 donors) (IL-2 2.5 ng/mL); assay: as above; conditions: 72 h
IMC-1 (IL-2 20 ng/mL) [5] = assay: as above; conditions: 72 h
NK-YS (IL-2 2.5 ng/mL) [6] = assay: as above; conditions: 72 h
KAI3 (IL-2 2.5 ng/mL) [7] = assay: as above; conditions: 72 h
SNK-6 (IL-2 2.5 ng/mL) [8] = assay: as above; conditions: 72 h
[9] = tested on: normal primary NK cells, pool 1 (3 donors), resting (IL-2 0 ng/mL); assay: as above; conditions: 72 h
YT (IL-2 2.5 ng/mL) [10] = assay: as above; conditions: 72 h
[11] = tested on: normal primary NK cells, pool 3 (3 donors) (IL-2 2.5 ng/mL); assay: as above; conditions: 72 h
NK-92 (IL-2 2.5 ng/mL) [12] = assay: as above; conditions: 72 h
NKL (IL-2 2.5 ng/mL) [13] = assay: as above; conditions: 72 h
[14] = tested on: normal NK cells expanded with K562-aAPC; assay: drug sensitivity score (DSS) (DSS units); higher = more sensitive; extreme values may be limits of the assay; conditions: 72 h; IL-2 2.5 ng/mL
Procedure: (§1)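 Drug sensitivity and resistance testing on K562-aAPC-expanded normal NK cells: 5 concentrations (10-fold steps over a 10,000-fold range), 72 h at 37 °C, viability by CellTiter-Glo normalised to DMSO and benzethonium chloride controls; DSS from the fitted curve.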

[15] = tested on: normal NK cells expanded with K562-aAPC; assay: percent inhibition of viability; higher = more inhibition; conditions: 72 h, IL-2 2.5 ng/mL
Procedure: as §1

[16] = tested on: normal primary NK cells, pool 1 (3 donors) (IL-2 2.5 ng/mL); assay: drug sensitivity score (DSS) (DSS units); higher = more sensitive; extreme values may be limits of the assay; conditions: 72 h
DERL-7 (IL-2 2.5 ng/mL) [17] = assay: as above; conditions: 72 h
KHYG-1 (IL-2 2.5 ng/mL) [18] = assay: as above; conditions: 72 h
[19] = tested on: normal primary NK cells, pool 2 (3 donors) (IL-2 2.5 ng/mL); assay: as above; conditions: 72 h
IMC-1 (IL-2 20 ng/mL) [20] = assay: as above; conditions: 72 h
NK-YS (IL-2 2.5 ng/mL) [21] = assay: as above; conditions: 72 h
KAI3 (IL-2 2.5 ng/mL) [22] = assay: as above; conditions: 72 h
SNK-6 (IL-2 2.5 ng/mL) [23] = assay: as above; conditions: 72 h
[24] = tested on: normal primary NK cells, pool 1 (3 donors), resting (IL-2 0 ng/mL); assay: as above; conditions: 72 h
YT (IL-2 2.5 ng/mL) [25] = assay: as above; conditions: 72 h
[26] = tested on: normal primary NK cells, pool 3 (3 donors) (IL-2 2.5 ng/mL); assay: as above; conditions: 72 h
NK-92 (IL-2 2.5 ng/mL) [27] = assay: as above; conditions: 72 h
NKL (IL-2 2.5 ng/mL) [28] = assay: as above; conditions: 72 h

CC(C)C[C@H](NC(=O)[C@@H](COC(C)(C)C)NC(=O)[C@H](Cc1ccc(O)cc1)NC(=O)[C@H](CO)NC(=O)[C@H](Cc1c[nH]c2ccccc12)NC(=O)[C@H](Cc1cnc[nH]1)NC(=O)[C@@H]1CCC(=O)N1)C(=O)N[C@@H](CCCNC(=N)N)C(=O)N1CCC[C@H]1C(=O)NNC(N)=O [Goserelin] (max concentration tested 10000 nM)
percent inhibition of viability [%]
Conditions	1 nM	10 nM	100 nM	1000 nM	10000 nM
DERL-7 (IL-2 2.5 ng/mL) [2]	0.68	-4.54	-4.5	-0.44	-4.02
IMC-1 (IL-2 20 ng/mL) [5]	-8.43	-3.76	-4.51	-0.15	11.2
KAI3 (IL-2 2.5 ng/mL) [7]	-6.09	-9.54	-7.05	1.42	21.1
KHYG-1 (IL-2 2.5 ng/mL) [3]	-5.2	-3.78	-7.91	-4.87	6.57
NK-92 (IL-2 2.5 ng/mL) [12]	-9.16	-10.9	-7.22	-12.8	20.7
NK-YS (IL-2 2.5 ng/mL) [6]	-9.13	-9.66	-6.69	-6.01	6.61
NKL (IL-2 2.5 ng/mL) [13]	-13.2	-11.5	-12.2	0.66	14.8
SNK-6 (IL-2 2.5 ng/mL) [8]	-19.4	-9.63	-24.4	-13.4	-9.52
YT (IL-2 2.5 ng/mL) [10]	-6.11	-8.09	-5.17	-3.36	20.9
[1]	2.55	-1.49	10.9	10.5	-0.05
[4]	-6.03	-6.27	-2.35	5.13	11.8
[9]	-2.06	1.54	20.9	19.8	15.1
[11]	-3.77	-5.54	7.78	0.8	-2.53
[15]	-6.58	-6.46	-10.9	-5.02	13.2

Conditions	drug sensitivity score
DERL-7 (IL-2 2.5 ng/mL) [17]	0
IMC-1 (IL-2 20 ng/mL) [20]	0.01
KAI3 (IL-2 2.5 ng/mL) [22]	0.84
KHYG-1 (IL-2 2.5 ng/mL) [18]	0
NK-92 (IL-2 2.5 ng/mL) [27]	0.34
NK-YS (IL-2 2.5 ng/mL) [21]	0
NKL (IL-2 2.5 ng/mL) [28]	0.26
SNK-6 (IL-2 2.5 ng/mL) [23]	0
YT (IL-2 2.5 ng/mL) [25]	0.49
[14]	0.04
[16]	0
[19]	0.22
[24]	5.4
[26]	0
